Reference: patent publication US20230416329A1, “A PEPTIDE WITH DISULFIDE BONDS AND INHIBITORY ACTIVITY AGAINST SERINE PROTEASES, DERIVED HYBRID PEPTIDES THEREOF, AND USES THEREOF” (INSTITUTE OF MATERIA MEDICA , CHINESE ACADEMY OF MEDICAL …, priority 2020, published 2023)
Bridge positions count the residues as written; N and C are the ends. Ends that are not written are not given here.

Columns and labels:
elastase = elastase (Sus scrofa, UniProt P00772); experiment: in vitro; conditions: isolated enzyme elastase
Outline: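 Peptides and elastase (0.5 μg/μL solution) each pre-warmed 5 min at 37° C, then mixed; aliquots taken at 1.5 to 60.0 min and quenched with 10% TFA. Remaining intact peptide quantified as RP-HPLC peak area.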

normal ICR mice [1] = experiment: In vivo hypoglycemic activity of GLP-1 analogues, subcutaneous administration, oral glucose loading; set-up: species or system mouse; conditions: subcutaneous 1 μmol/kg, mean
Description: FIG. 21. In vivo hypoglycemic activities of GLP-1 analogues by subcutaneous administration. Normal ICR mice were subcutaneously injected with GLP-1 and its analogues or corresponding volumes of saline (1.0 μmol/kg, n=10). After 30 min, glucose solution (2 g/kg) was administered by gavage, and blood was collected from the tail tip at 30, 60, and 120 min after glucose administration. Blood glucose was measured using glucose oxidase method, and blood glucose values and area under the blood glucose curve (AUC) were calculated at each timepoint.
The day before the experiment, all of the animals were fasted for 15-16 hours with water ad libitum. On the day of the experiment, the animals were randomly divided according to body weight (n=10). Firstly, the blood was collected from the tail tip at 0 hour, and then the animals were administered subcutaneously with GLP-1 analog (SEQ ID NOs: 194-201, 1 μmol/kg) or saline. After 30 minutes, the animals were administered by gavage with glucose solution (2 g/kg), and the blood was collected from the tail tip at 30, 60, and 120 minutes later. Blood glucose was measured using glucose oxidase method. The blood glucose and area under the blood glucose-time curve (AUC) were calculated.

normal ICR mice [2] = experiment: In vivo hypoglycemic activity of GLP-1 analogues, duodenal administration, oral glucose loading; set-up: species or system mouse
Description: FIG. 22. In vivo hypoglycemic activities of GLP-1 analogues by duodenal administration. Normal ICR mice were anesthetized with inhalation of ether, and the duodenum was surgically removed and injected with GLP-1 and its analogues or a corresponding volume of saline ([…], n=9-11), and finally the incision was sewed. After 15 min, glucose solution (2 g/kg) was administered by gavage, and blood was collected from the tail tips at 15, 30, and 60 min after glucose administration. Blood glucose was measured using glucose oxidase method, and blood glucose values and area under the blood glucose curve (AUC) were calculated at each timepoint.
Drug delivery technology can use enteric coating technology to achieve oral administration targeting the small intestine. In order to test the feasibility of direct small intestinal administration of GLP-1, the present invention designs duodenal administration. The experimental process is as follows: The day before the experiment, all of the animals were fasted for 15-16 hours with water ad libitum. On the day of the experiment, the animals were randomly divided according to body weight (n=9-11 or 14-15 for combined administration). Firstly, the blood was collected from the tail tip at 0 hours, and then the animals were anesthetized by inhaling ether. A small incision was made near the underside of the stomach using surgical scissors, and the duodenum was carefully removed and administered with GLP-1 analogs (SEQ ID NOs: 194-209, 10 μmol/kg) or saline. Finally, the wound was sutured. After 15 minutes, the glucose solution (2 g/kg) was administered by gavage, and the blood were collected from the tail tips at 15, 30, and 60 minutes after glucose administration. Blood glucose was measured using the glucose oxidase method. The blood glucose at each moment and area under the blood glucose-time curve (AUC) were calculated.
AUC mg×h/dL)=(BG0+BG15)×15/60+(BG15+BG30)×15/60+(BG30+BG60)×30/60. BG0, BG15, BG30, and BG60 represent blood glucose levels at 0, 15, 30, and 60 minutes after glucose loading, respectively.

DPP-IV = DPP-IV (Homo sapiens, UniProt P27487); experiment: Tolerance of GLP-1 and its analogues to DPP-IV (RP-HPLC remaining peak area); assay type: in vitro ADME; conditions: peptide 25 μM, DPP-IV 0.5 ng/μL, 37° C.
Description: Mix by centrifugation at 8000 rpm for 30 seconds.
(2) Arrange a certain volume of 0.005 μg/μL DPP-IV solution in another sterile EP.

[3] = Stability of GLP-1 and its analogues in human serum; conditions: 25% (v/v) human serum
[4] = biological target: T1, interaction of PCSK9-LDLR (Homo sapiens, UniProt Q8NBP7); experiment: PCSK9-LDLR in vitro binding assay (inhibitory rate); conditions: in vitro
T1 construct: purchased MBL Company, Beijing, China CY-8150
Outline: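 Polypeptide (final 50 μM) pre-incubated 20 min at room temperature with PCSK9 (final 75 ng/mL), then run in a PCSK9-LDLR binding kit read at OD450/540 nm. Inhibition rate calculated relative to a solvent control (water or DMSO) lacking polypeptide.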

[5] = test system: P407-induced hyperlipidemia mice; experiment: Subcutaneous injection of PCSK9 inhibitory peptide, serum total cholesterol in P407-induced hyperlipidemia mice; assay type: in vivo, mouse; conditions: for serum total cholesterol (TC) level after subcutaneous injection (in words): 2 μmol/kg single s.c., P407-induced hyperlipidemia mice
Description: The experimental peptide sample was prepared using PEG400 with a final concentration of […], and the final concentration of PEG400 is 20% (w/v). Normal ICR mice were fasted overnight with water ad libitum. The next day, all of the mice were randomly divided into model control group (Con) and polypeptide administration group (2 μmol/kg) according to body weight. Then, all of the mice were intraperitoneally injected with P407 (500 mg/kg) and fed with feed 2 hours later. Six mice were taken as a normal control group (Nor). After 24 hours, the mice in Con were subcutaneously injected with saline containing 20% PEG400, and the mice in the treatment group were given peptides. Then, the blood was taken at different time points after administration to determine the serum total cholesterol (TC) level. In consideration of the complexity of factors affecting serum LDL-C levels, especially the differences between single and long-term administration, the in vivo activity of PCSK9 inhibitory peptide is mainly observed for changes in serum TC levels.

[6] = test system: P407 induced hyperlipidemia mice; experiment: Duodenal injection of PCSK9 inhibitory peptide, serum total cholesterol in P407 induced hyperlipidemia mice; assay type: in vivo, mouse
Description: The experimental polypeptide sample was prepared using PEG400 with a final concentration of 20 μmol/kg and the final concentration of PEG400 is 50% (w/v). The control group was saline containing PEG400 (50%).
Normal ICR mice were fasted overnight with water ad libitum. The next day, all of the mice were intraperitoneally injected with poloxamer 407 (P407, 500 mg/kg) to establish a model of lipid metabolism disorder. Six mice were intraperitoneally injected with saline as a normal control (Nor). Normal feeding resumed after 2 hours. The model animals were randomly divided into model group (Con) and polypeptide groups according to body weight, and the blood was collected from tail tip (0 min). Then, the animals were anesthetized with ether for duodenal exposure surgery. At the same time, a sample or saline containing PEG400 was injected through the duodenum. Finally, the wound was sutured. The blood was collected from tail tip at 15, 30, 60, and 90 minutes after administration to determine the serum total cholesterol level.

[7] = pH 8, Remaining peak area (%)/elastase
[8] = duodenal 10 μmol/kg, normal ICR mice, after oral glucose loading

Chain of elastase (P00772 27-266): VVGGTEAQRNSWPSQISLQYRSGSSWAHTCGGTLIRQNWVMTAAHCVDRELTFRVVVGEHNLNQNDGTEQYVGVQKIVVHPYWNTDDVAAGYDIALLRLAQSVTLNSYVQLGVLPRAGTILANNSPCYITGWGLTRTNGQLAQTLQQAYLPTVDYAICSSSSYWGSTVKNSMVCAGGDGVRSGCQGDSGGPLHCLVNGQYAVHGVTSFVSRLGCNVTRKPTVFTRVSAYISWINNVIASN
Chain of DPP-IV (P27487 whole entry, species assumed): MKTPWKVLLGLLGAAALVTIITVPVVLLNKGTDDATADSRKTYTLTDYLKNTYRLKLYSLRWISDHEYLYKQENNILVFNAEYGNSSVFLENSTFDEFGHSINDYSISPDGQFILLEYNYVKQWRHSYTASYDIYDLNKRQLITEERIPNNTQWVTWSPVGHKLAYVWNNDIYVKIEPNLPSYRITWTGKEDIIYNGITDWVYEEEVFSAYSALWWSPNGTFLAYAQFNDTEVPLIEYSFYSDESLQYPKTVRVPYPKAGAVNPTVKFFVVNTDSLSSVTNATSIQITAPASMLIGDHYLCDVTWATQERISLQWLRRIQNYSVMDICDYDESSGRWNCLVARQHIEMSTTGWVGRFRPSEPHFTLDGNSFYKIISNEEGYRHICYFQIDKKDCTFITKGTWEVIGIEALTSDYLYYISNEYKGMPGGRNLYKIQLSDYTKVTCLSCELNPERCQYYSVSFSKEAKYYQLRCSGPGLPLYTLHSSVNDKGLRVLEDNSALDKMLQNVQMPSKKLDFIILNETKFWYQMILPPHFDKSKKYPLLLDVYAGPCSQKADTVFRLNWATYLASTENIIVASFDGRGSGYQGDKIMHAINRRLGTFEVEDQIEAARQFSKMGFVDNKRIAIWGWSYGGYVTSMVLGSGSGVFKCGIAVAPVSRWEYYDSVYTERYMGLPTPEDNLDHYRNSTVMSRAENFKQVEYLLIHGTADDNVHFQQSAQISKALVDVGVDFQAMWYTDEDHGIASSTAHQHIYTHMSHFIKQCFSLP

Compound: CC[C@H](C)[C@H](NC(=O)[C@H](Cc1ccccc1)NC(=O)[C@H](CCC(=O)O)NC(=O)[C@H](CCCCN)NC(=O)[C@H](C)NC(=O)[C@H](C)NC(=O)[C@H](CCC(N)=O)NC(=O)CNC(=O)[C@H](CCC(=O)O)NC(=O)[C@H](CC(C)C)NC(=O)[C@H](Cc1ccc(O)cc1)NC(=O)[C@H](CO)NC(=O)[C@H](CO)NC(=O)[C@@H](NC(=O)[C@H](CC(=O)O)NC(=O)[C@H](CO)NC(=O)[C@@H](NC(=O)[C@H](Cc1ccccc1)NC(=O)[C@@H](NC(=O)CNC(=O)[C@H](CCC(=O)O)NC(=O)[C@H](C)NC(=O)[C@H](Cc1c[nH]cn1)NC(=O)CNC(=O)CNC(=O)[C@@H](NC(=O)[C@@H]1CCCN1C(=O)[C@@H](NC(=O)CNC(=O)CNC(=O)[C@H](CCC(N)=O)NC(=O)[C@@H]1CSSC[C@H](NC(=O)[C@@H](N)CC(C)C)C(=O)N[C@@H]([C@@H](C)O)C(=O)N[C@@H](C)C(=O)N[C@@H](CO)C(=O)N[C@@H]([C@@H](C)CC)C(=O)N2CCC[C@H]2C(=O)N2CCC[C@H]2C(=O)N[C@@H]([C@@H](C)CC)C(=O)N1)[C@@H](C)CC)[C@@H](C)CC)[C@@H](C)O)[C@@H](C)O)C(C)C)C(=O)N[C@@H](C)C(=O)N[C@@H](Cc1c[nH]c2ccccc12)C(=O)N[C@@H](CC(C)C)C(=O)N[C@H](C(=O)N[C@@H](CCCCN)C(=O)NCC(=O)N[C@@H](CCCNC(=N)N)C(=O)NCC(=O)NCC(=O)N[C@@H](CCCCN)C(=O)O)C(C)C [EC12-D-GLP-1]
- Remaining peak area (%)/elastase (elastase; 1 h, 60 μM, pH 8): 17.8 ± 2.0%
- remaining at 0.025 h, 60 μM (elastase; [7]): 90.2 ± 3%
- remaining at 0.05 h, 60 μM (elastase; [7]): 86 ± 1.7%
- remaining at 0.075 h, 60 μM (elastase; [7]): 79.7 ± 3.5%
- remaining at 0.1 h, 60 μM (elastase; [7]): 79.1 ± 2.2%
- remaining at 0.15 h, 60 μM (elastase; [7]): 74.5 ± 2.2%
- remaining at 0.25 h, 60 μM (elastase; [7]): 63.3 ± 0.7%
- remaining at 0.5 h, 60 μM (elastase; [7]): 49.4 ± 0.9%
- remaining at 1 h, 60 μM (elastase; [7]): ~20%
- AUC (blood glucose-time curve) (normal ICR mice [1]; 0-120 min): 159.1 mg·h/dL
- Blood glucose 0 min (normal ICR mice [1]; 0 min, oral glucose loading 2 g/kg): 63.3 mg/dL
- Blood glucose 30 min (normal ICR mice [1]; 30 min after oral glucose loading): 103.3 mg/dL
- Blood glucose 60 min (normal ICR mice [1]; 60 min after oral glucose loading): 77.2 mg/dL
- Blood glucose 120 min (normal ICR mice [1]; 120 min after oral glucose loading): 67.6 mg/dL
- reduction of blood glucose at 15 minutes compared with Nor (normal ICR mice [2]; [8]): 11.9%
- reduction of blood glucose at 30 minutes compared with Nor (normal ICR mice [2]; [8]): 19.9%
- reduction of blood glucose at 60 minutes compared with Nor (normal ICR mice [2]; [8]): 17.4%
- AUC (blood glucose-time curve) (normal ICR mice [2]; duodenal injection 10 μmol/kg, 0-60 min, mean): 123.6 mg·h/dL
- Blood glucose 0 min (normal ICR mice [2]; duodenal injection 10 μmol/kg, 0 min, mean): 75.6 mg/dL
- Blood glucose 15 min (normal ICR mice [2]; duodenal injection 10 μmol/kg, 15 min after oral glucose loading, mean): 120.8 mg/dL
- Blood glucose 30 min (normal ICR mice [2]; duodenal injection 10 μmol/kg, 30 min, mean): 129.8 mg/dL
- Blood glucose 60 min (normal ICR mice [2]; duodenal injection 10 μmol/kg, 60 min, mean): 141.1 mg/dL
- Remaining peak area (%)/DPP-IV (DPP-IV; 0.0 h): 100.0 ± 0.0%
- remaining at 0.5 h, 25 μM (DPP-IV; isolated DPP-IV enzyme in buffer, pH 8, 0.5 h): 79.1 ± 2.6%
- remaining at 2 h, 25 μM (DPP-IV; isolated DPP-IV enzyme in buffer, pH 8, 2.0 h): 78.5 ± 1.1%
- remaining at 4 h, 25 μM (DPP-IV; isolated DPP-IV enzyme in buffer, pH 8, 4.0 h): 81.7 ± 0.8%
- remaining at 8 h, 25 μM (DPP-IV; isolated DPP-IV enzyme in buffer, pH 8, 8.0 h): 79.2 ± 2.6%
- remaining at 12 h, 25 μM (DPP-IV; isolated DPP-IV enzyme in buffer, pH 8, 12.0 h): 80.7 ± 0.3%
- Remaining peak area (%)/human serum ([3]; 0.0 h, peptide 0.03 mM, 37° C.): 100.0 ± 0.0%
- remaining at 0.5 h, 0.03 mM ([3]; human, pH 7): 94.6 ± 5.3%
- remaining at 2 h, 0.03 mM ([3]; human, pH 7): 69.3 ± 4%
- remaining at 4 h, 0.03 mM ([3]; human, pH 7): 43.4 ± 1.7%
- remaining at 8 h, 0.03 mM ([3]; human, pH 7): 5.7 ± 0.1%
- remaining at 12 h, 0.03 mM ([3]; human, pH 7): 2.2 ± 0.1%

Compound: Trp-Glu-Glu-Tyr-Leu-Asp-Tyr-Val-Gly-Ile-Cys-Thr-Ala-Ser-Ile-Pro-Pro-Ile-Cys-Gln-Gly-Thr-Val-Phe-Thr-Ser (WEEYLDYVGICTASIPPICQGTVFTS; disulfide 11-19 (inferred)) [PCSK9_6EC]
- inhibitory activity on the interaction between PCSK9 and LDLR (in words) [4]: good inhibitory activity on the interaction between PCSK9 and LDLR
- inhibitory activity on the interaction between PCSK9 and LDLR (in words) ([4]; listed as SEQ ID NO: 231): good inhibitory effects in vitro
- serum total cholesterol (TC) level after subcutaneous injection (in words) [5]: reduced serum TC level
- serum total cholesterol (TC) level after subcutaneous injection (in words) ([5]; listed as SEQ ID NO: 231): excellent lowering lipid (total cholesterol) activities in vivo
- TC 15 min ([5]; serum, subcutaneous 2 μmol/kg, 15 min after administration, mean ± sd): 243.8 ± 61.0 mg/dL
- TC 30 min ([5]; serum, subcutaneous 2 μmol/kg, 30 min after administration, mean ± sd): 236.9 ± 57.4 mg/dL
- TC 60 min ([5]; serum, subcutaneous 2 μmol/kg, 60 min after administration, mean ± sd): 234.5 ± 63.8 mg/dL
- TC 90 min ([5]; serum, subcutaneous 2 μmol/kg, 90 min after administration, mean ± sd): 227.4 ± 58.6 mg/dL
- hypolipidemic activity after duodenal administration (in words) ([6]; 20 μmol/kg, P407 induced hyperlipidemia mice): did not show hypolipidemic activity
- TC 15 min ([6]; serum, duodenal injection 20 μmol/kg, 15 min, mean ± sd): 316.6 ± 34.3 mg/dL
- TC 30 min ([6]; serum, duodenal injection 20 μmol/kg, 30 min, mean ± sd): 293.1 ± 67.3 mg/dL
- TC 60 min ([6]; serum, duodenal injection 20 μmol/kg, 60 min, mean ± sd): 323.9 ± 51.5 mg/dL
- TC 90 min ([6]; serum, duodenal injection 20 μmol/kg, 90 min, mean ± sd): 317.7 ± 44.3 mg/dL
